Patent publication US20180000085A1, “USE OF PICOLINAMIDE COMPOUNDS WITH FUNGICIDAL ACTIVITY” (DOW AGROSCIENCES LLC, priority 2014, published 2018)

Tests used:
Zymoseptoria tritici = assay: Leaf blotch of wheat (SEPTTR) disease control on wheat seedlings; format: in vivo; set-up: key to SEPTTR 1DP, HV activity at 100 ppm (% control rating) / SEPTTR 3DC, HV activity at 100 ppm (% control rating) / SEPTTR disease control, 1DP / SEPTTR disease control, 3DC / SEPTTR 1DP disease control rating, HV activity / SEPTTR 3DC disease control rating, HV activity / SEPTTR 3DC, LV activity at 125.1 g/H (% Control rating) / SEPTTR 1DP, LV activity at 125.1 g/H (% Control rating) / SEPTTR 1DP disease control rating, LV activity at 125.1 g/H / SEPTTR 3DC disease control rating, LV activity at 125.1 g/H / SEPTTR 3DC disease control rating, HV activity at 100 ppm / SEPTTR 1DP disease control rating, HV activity at 100 ppm / HV activity at 100 ppm SEPTTR 3DC (disease control rating) / HV activity at 100 ppm SEPTTR 1DP (disease control rating) / LV activity at 125.1 g/H SEPTTR 1DP (disease control rating) / LV activity at 125.1 g/H SEPTTR 3DC (disease control rating): A: > 80; B: ≤ 80; C: Not Tested; D: No Activity Observed in the Reported Assay; conditions: HV application at 100 ppm, wheat leaf blotch; for SEPTTR 1DP disease control rating, HV activity: 1 Day Protectant; for SEPTTR 3DC disease control rating, HV activity: 3 Day Curative
Experimental: (§1) All fungicides were evaluated using the aforementioned method for their activity vs. all target diseases, unless stated otherwise. Wheat leaf blotch and brown rust activity were also evaluated using track spray applications, in which case the fungicides were formulated as EC formulations, containing 0.1% Trycol 5941 in the spray solutions. Wheat plants (variety Yuma) were grown from seed in a greenhouse in 50% mineral soil/50% soil-less Metro mix until the first leaf was fully emerged, with 7-10 seedlings per pot. These plants were inoculated with an aqueous spore suspension of Zymoseptoria tritici either prior to or after fungicide treatments. After inoculation the plants were kept in 100% relative humidity (one day in a dark dew chamber followed by two to three days in a lighted dew chamber at 20° C.) to permit spores to germinate and infect the leaf. The plants were then transferred to a greenhouse set at 20° C. for disease to develop. When disease symptoms were fully expressed on the 1st leaves of untreated plants, infection levels were assessed on a scale of 0 to 100 percent disease severity. Percent disease control was calculated using the ratio of disease severity on treated plants relative to untreated plants.

Puccinia triticina = assay: Wheat brown rust (PUCCRT) disease control on wheat seedlings; format: in vivo; set-up: key to PUCCRT 3DC, HV activity at 100 ppm (% control rating) / PUCCRT disease control, 3DC / PUCCRT 1DP disease control rating, HV activity / PUCCRT 3DC disease control rating, HV activity / PUCCRT 3DC, LV activity at 125.1 g/H (% Control rating) / PUCCRT 1DP, LV activity at 125.1 g/H (% Control rating) / PUCCRT 3DC disease control rating, LV activity at 125.1 g/H / PUCCRT 1DP disease control rating, LV activity at 125.1 g/H / PUCCRT 3DC disease control rating, HV activity at 100 ppm / PUCCRT 1DP disease control rating, HV activity at 100 ppm / HV activity at 100 ppm PUCCRT 3DC (disease control rating) / LV activity at 125.1 g/H PUCCRT 1DP (disease control rating) / LV activity at 125.1 g/H PUCCRT 3DC (disease control rating): A: > 80; B: ≤ 80; C: Not Tested; D: No Activity Observed in the Reported Assay; conditions: HV application at 100 ppm, wheat brown rust; for PUCCRT 1DP disease control rating, HV activity: 1 Day Protectant; for PUCCRT 3DC disease control rating, HV activity: 3 Day Curative
Experimental: as §1, with “plants. Example B: Evaluation of Fungicidal Activity: Wheat Brown Rust (Puccinia triticina; Synonym: Puccinia recondita f. sp. Tritici; Bayer Code PUCCRT) Wheat plants (variety Yuma) were grown from seed in a greenhouse in 50% mineral soil/50% soil-less Metro mix until the first leaf was fully emerged, with 7-10 seedlings per pot. These plants were inoculated with an aqueous spore suspension of Puccinia triticina either prior to or after fungicide treatments. […] The plants were then transferred to a greenhouse set at 24° C. for disease to develop. Fungicide formulation, application and disease assessment followed the procedures as described in the Example A.” for “plants.”

Structure (SMILES)	SEPTTR 1DP disease control rating, HV activity (Zymoseptoria tritici)	SEPTTR 3DC disease control rating, HV activity (Zymoseptoria tritici)	PUCCRT 1DP disease control rating, HV activity (Puccinia triticina)	PUCCRT 3DC disease control rating, HV activity (Puccinia triticina)
CCCOC[C@H](C)OC(=O)[C@H](C)NC(=O)c1nccc(OC)c1O [Cmpd 334]	B (≤ 80)	B (≤ 80)	D	B (≤ 80)
COc1ccnc(C(=O)N[C@@H](C)C(=O)O[C@@H](C)COc2ccccc2)c1O [Cmpd 335]	B (≤ 80)	D	A (> 80)	A (> 80)
COc1ccnc(C(=O)N[C@@H](C)C(=O)O[C@@H](C)COC(=O)C(C)C)c1O [Cmpd 336]	B (≤ 80)	B (≤ 80)	D	D
COc1ccnc(C(=O)N[C@@H](C)C(=O)O[C@@H](C)COCC2CC2)c1O [Cmpd 338]	B (≤ 80)	D	B (≤ 80)	D
COc1ccnc(C(=O)N[C@@H](C)C(=O)O[C@@H](C)COCC(C)C)c1O [Cmpd 339]	B (≤ 80)	D	B (≤ 80)	A (> 80)
COc1ccnc(C(=O)N[C@@H](C)C(=O)O[C@@H](C)COC2CCCC2)c1O [Cmpd 340]	B (≤ 80)	D	B (≤ 80)	A (> 80)
COc1ccnc(C(=O)N[C@@H](C)C(=O)O[C@@H](C)COC(C)(C)C)c1O [Cmpd 341]	B (≤ 80)	B (≤ 80)	B (≤ 80)	B (≤ 80)
COc1ccnc(C(=O)N[C@@H](C)C(=O)O[C@@H](C)[C@@H](Cc2ccccc2)OC)c1O [Cmpd 342]	D	B (≤ 80)	B (≤ 80)	A (> 80)
COc1ccnc(C(=O)N[C@@H](C)C(=O)O[C@@H](C)[C@@H](Cc2ccccc2)OCC(C)C)c1O [Cmpd 343]	A (> 80)	B (≤ 80)	A (> 80)	A (> 80)
COc1ccnc(C(=O)N[C@@H](C)C(=O)O[C@@H](C)[C@@H](Cc2ccccc2)OCC2CC2)c1O [Cmpd 344]	D	B (≤ 80)	B (≤ 80)	A (> 80)
COc1ccnc(C(=O)N[C@@H](C)C(=O)O[C@@H](C)[C@@H](Cc2ccccc2)Oc2ccccc2)c1O [Cmpd 345]	D	B (≤ 80)	A (> 80)	A (> 80)
COc1ccnc(C(=O)N[C@@H](C)C(=O)O[C@@H](C)[C@H](Oc2ccc(Cl)cc2Cl)C2CCCC2)c1O [Cmpd 346]	D	B (≤ 80)	B (≤ 80)	D
COc1ccnc(C(=O)N[C@@H](C)C(=O)O[C@@H](C)[C@@H](Oc2ccccc2)C(C)C)c1O [Cmpd 347]	B (≤ 80)	B (≤ 80)	B (≤ 80)	A (> 80)
COc1ccnc(C(=O)N[C@@H](C)C(=O)O[C@H](C)[C@@H](Oc2ccccc2)C(C)C)c1O [Cmpd 349]	D	B (≤ 80)	D	D
COc1ccnc(C(=O)N[C@@H](C)C(=O)O[C@H](C)[C@@H](Oc2ccccc2)c2ccccc2)c1O [Cmpd 350]	D	B (≤ 80)	D	A (> 80)
COc1ccnc(C(=O)N[C@H](C)C(=O)O[C@H](C)[C@@H](Oc2ccccc2)C(C)C)c1O [Cmpd 351]	B (≤ 80)	D	D	D
COc1ccnc(C(=O)N[C@H](C)C(=O)O[C@H](C)[C@@H](Oc2ccccc2)c2ccccc2)c1O [Cmpd 352]	D	B (≤ 80)	D	D
CCC(CC)[C@@H](OCC1CC1)[C@H](C)OC(=O)[C@H](C)NC(=O)c1nccc(OC)c1O [Cmpd 353]	B (≤ 80)	B (≤ 80)	A (> 80)	A (> 80)
CCC(CC)[C@@H](OCC(C)C)[C@H](C)OC(=O)[C@H](C)NC(=O)c1nccc(OC)c1O [Cmpd 354]	B (≤ 80)	B (≤ 80)	B (≤ 80)	A (> 80)
COc1ccnc(C(=O)N[C@@H](C)C(=O)O[C@@H](C)[C@@H](CC(C)C)Oc2ccccc2)c1O [Cmpd 355]	A (> 80)	A (> 80)	A (> 80)	A (> 80)
COc1ccnc(C(=O)N[C@@H](C)C(=O)O[C@@H](C)[C@H](Oc2ccccc2)C2CCCC2)c1O [Cmpd 356]	A (> 80)	B (≤ 80)	A (> 80)	A (> 80)
COc1ccnc(C(=O)N[C@@H](C)C(=O)O[C@@H](C)[C@H](Oc2cccc(Cl)c2)C(C)C)c1O [Cmpd 357]	A (> 80)	A (> 80)	A (> 80)	A (> 80)
